Laboratory results published in US20230167105A1, “BCL-2 PROTEIN INHIBITORS” (Recurium IP Holdings, LLC, priority 2020, published 2023).

Tested on: MOLT-4 cells
Experiment: MOLT-4 Cell Proliferation Assay (CellTiter-Glo)
Type: cell-based
Details: Homo sapiens, 72 h, read-out: MOLT-4 CTG IC50
Protocol: Cell proliferation was measured using the CellTiter-Glo® Luminescent Cell Viability Assay. The assay involved the addition of a single reagent (CellTiter-Glo® Reagent) directly to cells cultured in serum-supplemented medium. MOLT-4 cells (ATCC, CRL-1582) were cultured according to ATCC recommendations and were seeded at 50,000 cells per well.
Each compound evaluated was prepared as a DMSO stock solution (10 mM). Compounds were tested in duplicate on each plate, with a 10-point serial dilution curve (1:3 dilution). The highest compound concentration was 10 μM (final), with a 0.1% final DMSO concentration. Plates were then incubated at 37° C., 5% CO2 for 72 h, cell plates were equilibrated at rt for approximately 30 mins. An equi-volume amount of CellTiter-Glo® Reagent (100 μL) was added to each well. Plates were mixed for 2 mins on an orbital shaker to induce cell lysis and then incubated at rt for 10 mins to stabilize the luminescent signal. Luminescence was recorded using a Envision plate reader according to CellTiter-Glo protocol. IC50 of each compound was calculated using GraphPad Prism by nonlinear regression analysis.

| Structure (SMILES) | IC50 |
| --- | --- |
| CN(CCCCCNc1cccc2c1C(=O)N(C1CCC(=O)NC1=O)C2=O)CC[C@H](CSc1ccccc1)Nc1ccc(S(=O)(=O)NC(=O)c2ccc(N3CCN(CC4=C(C56CC(C(F)F)(C5)C6)CC(C)(C)CC4)CC3)cc2)cc1S(=O)(=O)C(F)(F)F (stereo partly drawn) [Example 20, 4-(4-((2-(3-(difluoromethyl)bicycle[1.1.1]pentan-1-yl)-4,4-dimethylcyclohex-1-en-1-yl)methyl)piperazin-1-yl)-N-((4-(((2R)-4-((5-((2-(2,6-dioxopiperidin-3-yl)-1,3-dioxoisoindolin-4-yl)amino)pentyl)(methyl)amino)-1-(phenylthio)butan-2-yl)amino)-3-((trifluoromethyl)sulfonyl)phenyl)sulfonyl)benzamide] | ≤ 50 nM |
| CN(CCCCCCNc1cccc2c1C(=O)N(C1CCC(=O)NC1=O)C2=O)CC[C@H](CSc1ccccc1)Nc1ccc(S(=O)(=O)NC(=O)c2ccc(N3CCN(CC4=C(C56CC(C(F)F)(C5)C6)CC(C)(C)CC4)CC3)cc2)cc1S(=O)(=O)C(F)(F)F (stereo partly drawn) [Example 21, 4-(4-((2-(3-(difluoromethyl)bicyclo [1.1.1]pentan-1-yl)-4,4-dimethylcyclohex-1-en-1-yl)methyl)piperazin-1-yl)-N-((4-(((2R)-4-((6-((2-(2,6-dioxopiperidin-3-yl)-1,3-dioxoisoindolin-4-yl)amino)hexyl)(methyl)amino)-1-(phenylthio)butan-2-yl)amino)-3-((trifluoromethyl)sulfonyl)phenyl)sulfonyl)benzamide] | 50 to 150 nM |
| CC1(C)CCC(CN2CCN(c3ccc(C(=O)NS(=O)(=O)c4ccc(N[C@H](CCN5CCN(CCCCCc6cccc7c6C(=O)N(C6CCC(=O)NC6=O)C7=O)CC5)CSc5ccccc5)c(S(=O)(=O)C(F)(F)F)c4)cc3)CC2)=C(C23CC(C(F)F)(C2)C3)C1 (stereo partly drawn) [Example 22, 4-(4-((2-(3-(difluoromethyl)bicyclo[1.1.1]pentan-1-yl)-4,4-dimethylcyclohex-1-en-1-yl)methyl)piperazin-1-yl)-N-((4-(((2R)-4-(4-(5-(2-(2,6-dioxopiperidin-3-yl)-1,3-dioxoisoindolin-4-yl)pentyl)piperazin-1-yl)-1-(phenylthio)butan-2-yl)amino)-3-((trifluoromethyl)sulfonyl)phenyl)sulfonyl)benzamide] | ≥ 150 nM |
| Cc1ncsc1-c1ccc([C@H](C)NC(=O)[C@@H]2C[C@@H](O)CN2C(=O)[C@@H](NC(=O)CCCCCCC(=O)N2CCN(CC[C@H](CSc3ccccc3)Nc3ccc(S(=O)(=O)NC(=O)c4ccc(N5CCN(CC6=C(C78CC(C(F)F)(C7)C8)CC(C)(C)CC6)CC5)cc4)cc3S(=O)(=O)C(F)(F)F)CC2)C(C)(C)C)cc1 [Example 23, (2S,4R)-1-((S)-2-(8-(4-((R)-3-((4-(N-(4-(4-((2-(3-(difluoromethyl)bicyclo[1.1.1]pentan-1-yl)-4,4-dimethylcyclohex-1-en-1-yl)methyl)piperazin-1-yl)benzoyl)sulfamoyl) ((trifluoromethyl)sulfonyl)phenyl)amino)-4-(phenylthio)butyl)piperazin-1-yl)-8-oxooctanamido)-3,3-dimethylbutanoyl)-4-hydroxy-N—((S)-1-(4-(4-methylthiazol-5-yl)phenyl)ethyl)pyrrolidine-2-carboxamide] | 50 to 150 nM |
| Cc1ncsc1-c1ccc([C@H](C)NC(=O)[C@@H]2C[C@@H](O)CN2C(=O)[C@@H](NC(=O)CCCCCN2CCN(CC[C@H](CSc3ccccc3)Nc3ccc(S(=O)(=O)NC(=O)c4ccc(N5CCN(CC6=C(C78CC(C)(C7)C8)CC(C)(C)CC6)CC5)cc4)cc3S(=O)(=O)C(F)(F)F)CC2)C(C)(C)C)cc1 [Example 26, (2S,4R)-1-((S)-2-(6-(4-((R)-3-((4-(N-(4-(4-((4,4-dimethyl-2-(3-methylbicyclo[1.1.1]pentan-1-yl)cyclohex-1-en-1-yl)methyl)piperazin-1-yl)benzoyl)sulfamoyl)-2-((trifluoromethyl)sulfonyl)phenyl)amino)-4-(phenylthio)butyl)piperazin-1-yl)hexanamido)-3,3-dimethylbutanoyl)-4-hydroxy-N—((S)-1-(4-(4-methylthiazol-5-yl)phenyl)ethyl)pyrrolidine-2-carboxamide] | ≥ 150 nM |
| CC1(C)CCC(CN2CCN(c3ccc(C(=O)NS(=O)(=O)c4ccc(N[C@H](CCN5CCN(CCCC#Cc6cccc7c6CN(C6CCC(=O)NC6=O)C7=O)CC5)CSc5ccccc5)c(S(=O)(=O)C(F)(F)F)c4)cc3)CC2)=C(C23CC(C(F)F)(C2)C3)C1 (stereo partly drawn) [Example 29, 4-(4-((2-(3-(difluoromethyl)bicyclo[1.1.1]pentan-1-yl)-4,4-dimethylcyclohex-1-en-1-yl)methyl)piperazin-1-yl)-N-((4-(((2R)-4-(4-(5-(2-(2,6-dioxopiperidin-3-yl)-1-oxoisoindolin-4-yl)pent-4-yn-1-yl)piperazin-1-yl)-1-(phenylthio)butan-2-yl)amino)-3-((trifluoromethyl)sulfonyl)phenyl)sulfonyl)benzamide] | ≤ 50 nM |
| Cc1ncsc1-c1ccc(CNC(=O)[C@@H]2C[C@@H](O)CN2C(=O)[C@@H](NC(=O)CCCCCC(=O)N2CCN(CC[C@H](CSc3ccccc3)Nc3ccc(S(=O)(=O)NC(=O)c4ccc(N5CCN(CC6=C(C78CC(C(F)F)(C7)C8)CC(C)(C)CC6)CC5)cc4)cc3S(=O)(=O)C(F)(F)F)CC2)C(C)(C)C)cc1 [Example 45, (2S,4R)-1-((S)-2-(7-(4-((R)-3-((4-(N-(4-(4-((2-(3-(difluoromethyl)bicyclo[1.1.1]pentan-1-yl)-4,4-dimethylcyclohex-1-en-1-yl)methyl)piperazin-1-yl)benzoyl)sulfamoyl)-2-((trifluoromethyl)sulfonyl)phenyl)amino)-4-(phenylthio)butyl)piperazin-1-yl)-7-oxoheptanamido)-3,3-dimethylbutanoyl)-4-hydroxy-N-(4-(4-methylthiazol-5-yl)benzyl)pyrrolidine-2-carboxamide] | ≥ 150 nM |
| Cc1ncsc1-c1ccc([C@H](CC(=O)NCCCCCC(=O)N2CCN(CC[C@H](CSc3ccccc3)Nc3ccc(S(=O)(=O)NC(=O)c4ccc(N5CCN(CC6=C(C78CC(C(F)F)(C7)C8)CC(C)(C)CC6)CC5)cc4)cc3S(=O)(=O)C(F)(F)F)CC2)NC(=O)[C@@H]2C[C@@H](O)CN2C(=O)[C@@H](NC(=O)C2(F)CC2)C(C)(C)C)cc1 [Example 47] | ≥ 150 nM |
| Cc1ncsc1-c1ccc([C@H](CC(=O)NCCCCCCN2CCN(CC[C@H](CSc3ccccc3)Nc3ccc(S(=O)(=O)NC(=O)c4ccc(N5CCN(CC6=C(C78CC(C(F)F)(C7)C8)CC(C)(C)CC6)CC5)cc4)cc3S(=O)(=O)C(F)(F)F)CC2)NC(=O)[C@@H]2C[C@@H](O)CN2C(=O)[C@@H](NC(=O)C2(F)CC2)C(C)(C)C)cc1 [Example 48] | ≥ 150 nM |
| Cc1ncsc1-c1ccc([C@H](CC(=O)NCCCCCCN(C)CC[C@H](CSc2ccccc2)Nc2ccc(S(=O)(=O)NC(=O)c3ccc(N4CCN(CC5=C(C67CC(C(F)F)(C6)C7)CC(C)(C)CC5)CC4)cc3)cc2S(=O)(=O)C(F)(F)F)NC(=O)[C@@H]2C[C@@H](O)CN2C(=O)[C@@H](NC(=O)C2(F)CC2)C(C)(C)C)cc1 [Example 49, (2S,4R)—N-[(1S)-3-[6-[[(3R)-3-[4-[[4-[4-[[2-[3-(difluoromethyl)-1-bicyclo[1.1.1]pentanyl]-4,4-dimethyl-cyclohexen-1-yl]methyl]piperazin-1-yl]benzoyl]sulfamoyl]-2-(trifluoromethylsulfonyl)anilino]-4-phenylsulfanyl-butyl]-methyl-amino]hexylamino]-1-[4-(4-methylthiazol-5-yl)phenyl]-3-oxo-propyl]-1-[(2S)-2-[(1-fluorocyclopropanecarbonyl)amino]-3,3-dimethyl-butanoyl]-4-hydroxy-pyrrolidine-2-carboxamide] | ≥ 150 nM |
